Experimental data reported in patent US8614202B2, “2α-methyl and 2β-methyl analogs of 19,26,27-trinor-(20S)-1α-hydroxyvitamin D3 and their uses” (Wisconsin Alumni Research Foundation, priority 2004, dated 2013).

How the values were obtained:
[1] = target: T1, full-length recombinant rat vitamin D receptor (Rattus norvegicus, UniProt P13053); experiment: Vitamin D receptor binding, competition with [3H]-1,25(OH)2D3; settings: full-length recombinant rat VDR; 1 nM radioligand
T1 construct: Full-length recombinant rat receptor was expressed in E. coli BL21 (DE3) Codon Plus RIL cells; histidine tag (C); made in house; host or cells: E. coli BL21 (DE3) Codon Plus RIL
T1 sequence (P13053 1-423): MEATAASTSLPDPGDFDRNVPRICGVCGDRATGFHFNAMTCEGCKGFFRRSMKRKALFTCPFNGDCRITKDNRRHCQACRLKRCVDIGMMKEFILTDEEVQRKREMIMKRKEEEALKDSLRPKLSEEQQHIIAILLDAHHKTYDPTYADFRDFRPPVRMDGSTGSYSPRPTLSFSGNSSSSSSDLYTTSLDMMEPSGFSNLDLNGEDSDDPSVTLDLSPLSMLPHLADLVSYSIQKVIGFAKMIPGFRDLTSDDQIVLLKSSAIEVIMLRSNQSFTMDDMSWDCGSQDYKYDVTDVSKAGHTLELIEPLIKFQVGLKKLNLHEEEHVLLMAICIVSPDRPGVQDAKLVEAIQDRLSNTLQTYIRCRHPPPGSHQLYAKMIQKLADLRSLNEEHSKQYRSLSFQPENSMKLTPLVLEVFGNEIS
Source text: Vitamin D Receptor Binding
Full-length recombinant rat receptor was expressed in E. coli BL21 (DE3) Codon Plus RIL cells and purified to homogeneity using two different column chromatography systems. The first system was a nickel affinity resin that utilizes the C-terminal histidine tag on this protein. The protein that was eluted from this resin was further purified using ion exchange chromatography (S-Sepharose Fast Flow). Aliquots of the purified protein were quick frozen in liquid nitrogen and stored at −80° C. until use. For use in binding assays, the protein was diluted in TEDK50 (50 mM Tris, 1.5 mM EDTA, pH7.4, 5 mM DTT, 150 mM KCl) with 0.1% Chaps detergent. The receptor protein and ligand concentration were optimized such that no more than 20% of the added radiolabeled ligand was bound to the receptor.
Radiolabeled and unlabeled ligands were added to 100 mcl of the diluted protein at a final ethanol concentration of ≦10%, mixed and incubated overnight on ice to reach binding equilibrium. The following day, 100 mcl of hydroxylapatite slurry (50%) was added to each tube and mixed at 10-minute intervals for 30 minutes. The hydroxylapaptite was collected by centrifugation and then washed three times with Tris-EDTA buffer (50 mM Tris, 1.5 mM EDTA, pH 7.4) containing 0.5% Titron X-100. […] Total binding was determined from the tubes containing only radiolabeled ligand.

[2] = test system: Human promyelocytic leukemia (HL60) cells; experiment: HL-60 differentiation (nitro blue tetrazolium reduction); type: cell-based; settings: four days after treatment
Method: The study drugs were dissolved in ethanol and the concentrations determined using UV spectrophotometry. Serial dilutions were prepared so that a range of drug concentrations could be tested without changing the final concentration of ethanol (≦0.2%) present in the cell cultures.
Human promyelocytic leukemia (HL60) cells were grown in RPMI-1640 medium containing 10% fetal bovine serum. The cells were incubated at 37° C. in the presence of 5% CO2.
HL60 cells were plated at 1.2×10^5 cells/ml. Eighteen hours after plating, cells in duplicate were treated with drug. Four days later, the cells were harvested and a nitro blue tetrazolium reduction assay was performed (Collins et al., 1979; J. Exp. Med. 149:969-974). The percentage of differentiated cells was determined by counting a total of 200 cells and recording the number that contained intracellular black-blue formazan deposits. Verification of differentiation to monocytic cells was determined by measuring phagocytic activity (data not shown).

[3] = test system: 24-hydroxylase (24Ohase) gene promoter in ROS 17/2.8 (bone) cells; experiment: In vitro transcription assay (24-hydroxylase promoter luciferase reporter); type: cell-based; settings: ROS 17/2.8 cells, 24Ohase-luciferase, sixteen hours after dosing; read-out: EC50, transcriptional activity in bone cells
Method: In Vitro Transcription Assay
Transcription activity was measured in ROS 17/2.8 (bone) cells that were stably transfected with a 24-hydroxylase (24Ohase) gene promoter upstream of a luciferase reporter gene (Arbour et al., 1998). Cells were given a range of doses. Sixteen hours after dosing the cells were harvested and luciferase activities were measured using a luminometer. • RLU=relative luciferase units. Intestinal Calcium Transport and Bone Calcium Mobilization

[4] = Bone calcium mobilization (serum calcium) in vitamin D-deficient rats; type: in vivo, Sprague-Dawley rats
Method: Male, weanling Sprague-Dawley rats were placed on Diet 11 (0.47% Ca) diet+AEK for one week followed by Diet 11 (0.02% Ca)+AEK for 3 weeks. The rats were then switched to a diet containing 0.47% Ca for one week followed by two weeks on a diet containing 0.02% Ca. Dose administration began during the last week on 0.02% calcium diet. Four consecutive ip doses were given approximately 24 hours apart. Twenty-four hours after the last dose, blood was collected from the severed neck and the concentration of serum calcium determined as a measure of bone calcium mobilization. The first 10 cm of the intestine was also collected for intestinal calcium transport analysis using the everted gut sac method.
Calcium mobilization from bone in vitamin D-deficient animals.

[5] = low calcium diet (0.02%), four consecutive ip doses, overall / all dosages

Structure (SMILES) | Ki [1] [nM] | EC50 [2] [nM] | EC50 [3] [nM] | calcium mobilization from bone (serum calcium) ([4]; 0.02% Ca diet, 780 pmol/day for 4 consecutive days) | calcium mobilization from bone (serum calcium) ([4]; 0.02% Ca diet, 2340 pmol/day) | calcium mobilization from bone (serum calcium) ([4]; 0.02% Ca diet, 7020 pmol/day) | calcium mobilization from bone (serum calcium) [4, 5]
CCCCC(C)C1CCC2C(=CC=C3CC(O)C(C)C(O)C3)CCCC21C (single isomer, unassigned) [C-19] | 0.22 | 8.2 | 10 | did not result in mobilization of bone calcium | without any substantial effect | without any substantial effect | little, if any, activity in mobilizing calcium from bone
C=C1/C(=C\C=C2/CCC[C@]3(C)[C@@H]([C@H](C)CCCC(C)(C)O)CC[C@@H]23)C[C@@H](O)C[C@@H]1O [1,25(OH)2D3, 1α,25-dihydroxyvitamin D3, reference compound] | – | 2.9 | – | – | – | – | increased serum calcium levels at all dosages
CCCCC(C)C1CCC2C(=CC=C3CC(O)C(C)C(O)C3)CCCC21C (single isomer, unassigned) [N-16] | 10 | 100 | 100 | – | – | – | –
